Experiment: Solubility of monomers and BTT in 1:1 mixes of acetonitrile and a solvent
Assay type: physicochemical
Description: The BTT (MW 192.2., water content ≦75 ppm) was supplied by emp Biotech GmbH (catalog no. NC-0101-1K, charge/lot no. 050904). The dT (MW 744.83), dG^ibu (MW 839.92), dA^bz (MW 857.93), dC^bz (MW 833.93) monomers were supplied by Proligo. The acetonitrile (MeCN) has a viscosity of 0.345 cP at 25° C. and a dipole moment of 3.92 D.
74.5 mg (100 μmol) of dT monomer was weighed out into each of 7 screw-topped 10 ml vials. 84 mg (100 μmol) of dG^ibu monomer was weighed out into each of 7 screw-topped 10 ml vials. 86 mg (100 μmol) of dA^bz monomer was weighed out into each of 7 screw-topped 10 ml vials. 83 mg (100 μmol) of dC^bz monomer was weighed out into each of 7 screw-topped 10 ml vials. 228 mg (1.2 mmol) of BTT was weighed out into each of 7 screw-topped 10 ml vials.
Six different solvent mixes were prepared by mixing 10 ml of dry acetonitrile with 10 ml of one of the 6 different solvents listed above in separate dry bottles under argon.
To each separate vial of T monomer was added 1 ml of one of the 6 different solvent mixes or pure acetonitrile. The vials were quickly closed and agitated gently. This was repeated with the vials of dG, dA and dC monomers.
To each separate vial of BTT was added 4 ml of one of the 6 solvent mixes.

c1ccc(CSc2nnn[nH]2)cc1 [BTT, 5-benzylthiotetrazole]
dissolution of BTT (0.3 M, solvent mixes, all cases except HFIP/MeCN): practically instantaneous
solubility of BTT (at 0.3 M in all 5 mixes (acetonitrile 1:1 with NMP, DMA, TMU, DMSO, sulfolane)): soluble
dissolution of BTT (pure acetonitrile, compared with the solvent mixes, gentle warming required for rapid dissolution): not as fast
